From PMC9780203, “Synthesis, molecular docking, and in-vitro studies of pyrimidine-2-thione derivatives as antineoplastic agents via potential RAS/PI3K/Akt/JNK inhibition in breast carcinoma cells” (Scientific Reports, 2022)
Entries after “also recorded” stand apart in the source; their conditions may differ.

Experiments:
[1] = system: MCF-7 breast cancer cells; assay: MTT cell viability, MCF-7; type: cell-based; conditions: Homo sapiens, MCF7, 48 h, mean ± SE
Method: (§1) 3-(4,5-dimethylthiazol-2-yl)-2,5-diphenyltetrazolium bromide (MTT) assay was used to measure cell viability according to a prior study. The cells were grown in 96-well plates at a density of 1 × 10^4 cells/well, treated for 48 h with varied 5a (0–200 µM) or the reference drug DOX (0–100 µM) dosages, and then exposed to analysis. The culture medium was taken out after 48 h of incubation, and the cells were given two gentle washes with 1× ice-cold phosphate-buffered saline (PBS). The MTT (10×) has been diluted to a 1× solution in the culture medium (1 volume 10× MTT in 9 volumes medium) and 200 μl was added to each well. The microplate has been kept in a cell culture incubator at 37 °C for 4 h. Afterthat, 180 μl of the MTT solution was taken out and 100 μl of DMSO was put to each well. The microplate was incubated for 15 min with shaking at room temperature. The absorbance of each well was ultimately measured at 630 nm using a Model 680 microplate reader (Bio-Rad, CA, USA)[33].

[2] = system: normal human amniotic WISH cells; assay: MTT cell viability, normal WISH cells; type: cell-based; conditions: 48 h, mean ± SE, read-out: IC50, normal cell line (WISH)
Method: as §1

[3] = system: MDA-MB-231 breast cancer cells; assay: MTT cell viability, MDA-MB-231; type: cell-based; conditions: Homo sapiens, 48 h, mean ± SE
Method: as §1

[4] = system: Caco-2 colorectal cancer cells; assay: MTT cell viability, Caco-2; type: cell-based; conditions: Homo sapiens, 48 h, mean ± SE
Method: as §1

[5] = system: PANC-1 pancreatic cancer cells; assay: MTT cell viability, PANC-1; type: cell-based; conditions: Homo sapiens, 48 h, mean ± SE
Method: as §1

[6] = system: MCF-7 cells; assay: Cell morphology by inverted light microscope; type: cell-based, human; conditions: IC50 dose, 48 h
Method: Using an inverted light microscope (Olympus, USA), the morphological alterations of the treated and untreated cells were evaluated and documented after 48 h of incubation.

[7] = system: MCF-7 cells; assay: Cell cycle analysis by flow cytometry (PI); type: cell-based, human; conditions: MCF-7, IC50 dose, 48 h; untreated control 8.6%
Method: Using flow cytometry, cell cycle analysis was carried out via a documented method of[35] with a few changes. After trypsinization, the MCF-7 cells were centrifuged at 4500 rpm for 5 min, followed by two washings, resuspension in 1× PBS, fixation with ice-cold absolute ethanol, and incubation at 20 °C for 24 h. Following two PBS washes, the cells were then resuspended in (0.05 mg/mL) propidium iodide (PI)[32] solution containing 50 µL (0.2 mg/mL) of RNase A, and 0.1% v/v Triton X-100 in PBS. Then, the cells were incubated at room temperature for 30–60 min in the dark. Finally, the pellet was washed with 1⤫ PBS and resuspended in 300 µL 1× PBS, and subjected to analysis on Accuri C6 flow cytometer (Becton Dickinson, Franklin Lake, BD, USA) equipped with PE X FL2 channels.

[8] = system: PI3K; assay: RT-PCR analysis of PI3K gene expression in MCF-7; type: cell-based, human; conditions: MCF-7, IC50 dose, 48 h, vs untreated cells
Method: (§2) The total RNA was isolated from the MCF-7 cells using Trizol (Cat# R2072, ZYMO […] CORP. USA) according to the manufacturer’s instructions. Its quantity and quality were assessed using a Beckman dual spectrophotometer. The cDNA was performed using a miScript Reverse Transcription Kit (QIAGEN) Kit (218061) and a miScript SYBR Green PCR Kit was used for mRNA detection with quantification (218073). Reverse transcription was running on a StepOne system (Applied Biosystems, Foster City, CA, USA) in a total volume of 10 μL containing 5 μL of the miScript RT enzyme and […]. Real-time PCR for mRNA was performed on the same system in a total volume of 20 μL containing 10 μL of a 2× QuantiTect® SYBR Green PCR Master Mix and 10 ng of the cDNA template. The PCR thermal cycling conditions for the mRNA were 2 min at 50 °C, 30 s at 95 °C, 40 cycles of 95 °C for 5 s, and 60 °C for 34 s. The expression of the mRNA target genes was normalized to the expression of human GAPDH quantified using the 2^−ΔΔCt method. Table 1 contains a list of the primers used in the research.

[9] = system: Akt; assay: RT-PCR analysis of Akt gene expression in MCF-7; type: cell-based, human; conditions: MCF-7, IC50 dose, 48 h, vs untreated cells
Method: as §2

[10] = system: p21; assay: RT-PCR analysis of p21 gene expression in MCF-7; type: cell-based, human; conditions: MCF-7, IC50 dose, 48 h, vs untreated cells
Method: as §2

[11] = system: phospho-RAS-GRF1 (Ser916); assay: Immunoblotting of p-RAS in MCF-7; type: cell-based, human; conditions: MCF-7, IC50 dose, 48 h, western blot, vs untreated cells
Method: (§3) Western blot analysis was conducted according to[37]. The ReadyPrepTM protein extraction kit (total protein) provided by Bio-Rad Inc (Cat #163-2086) was used to isolate proteins according to the manufacturer’s instructions. The Bradford protein assay kit (SK3041) from Bio Basic Inc. (Markham Ontario L3R 8T4 Canada) was then used to perform quantitative protein analysis. Afterward, a 20 μg protein concentration of each sample was subjected to 12% sodium dodecyl sulfate–polyacrylamide gel electrophoresis (SDS-PAGE), followed by transfer to polyvinylidene fluoride (PVDF) membranes (BioRad). Polyacrylamide gels were performed using the TGX Stain-Free™ FastCast™ Acrylamide Kit (SDS-PAGE) provided by Bio-Rad Laboratories Inc. (Cat # 161-0181). The SDS-PAGE TGX Stain-Free FastCast was prepared according to the manufacturer's instructions. The membrane was blocked in tris-buffered saline with Tween 20 (TBST) buffer and 3% bovine serum albumin (BSA) for 1 h at room temperature followed by probing with primary antibodies against phospho-RAS-GRF1 (Ser916) (1: 1000, Cell Signaling Technology, #3321), phospho-SAPK/JNK (Thr183/Tyr185) (1:1000, Cell Signaling Technology, #9251), p53 (1:1000, Cell Signaling Technology, #9282) and β-actin (1:3000, Cell Signaling Technology, #8457). […]

[12] = system: phospho-SAPK/JNK (Thr183/Tyr185); assay: Immunoblotting of p-JNK in MCF-7; type: cell-based, human; conditions: MCF-7, IC50 dose, 48 h, western blot, vs untreated cells
Method: as §3

[13] = system: p53; assay: Immunoblotting of p53 in MCF-7; type: cell-based, human; conditions: MCF-7, IC50 dose, 48 h, immunoblot, vs untreated cells
Method: as §3

| melting point | IC50 [1] | IC50 [3] | IC50 [4] | IC50 [5] | Compound | IC50 [2] | Morphological features of MCF-7 cells [6] | Percentage of cells at sub-G0/G1 [7] | mRNA transcript level of PI3K [8] | mRNA transcript level of Akt [9] | p21 gene expression [10] | levels of p-RAS proteins [11] | p-JNK protein expression [12] | p53 protein expression [13] |
| --- | --- | --- | --- | --- | --- | --- | --- | --- | --- | --- | --- | --- | --- | --- |
| 258 °C | – | – | – | – | COc1cc(/C=C/C(=O)C2=C(C)NC(=S)NC2c2cccs2)ccc1O (stereo not shown) [2b, [E]-3-(4-hydroxy-3-methoxyphenyl)-1-(6-methyl-4-(thiophen-2-yl)-2-thioxo-1,2,3,4-tetrahydropyrimidin-5-yl)prop-2-en-1-one] | – | – | – | – | – | – | – | – | – |
| – | 2.26 ± 1.4 µM | – | – | – | COc1cccc2c1C(=O)c1c(O)c3c(c(O)c1C2=O)C[C@@](O)(C(=O)CO)C[C@@H]3O[C@H]1C[C@H](N)[C@H](O)[C@H](C)O1 [DOX, Doxorubicin, reference compound] | 24.5 ± 2.1 µM | – | – | – | – | – | – | – | – |
| – | 2.62 ± 1.6 µM | 6.78 ± 2.2 µM | 14.8 ± 2.5 µM | 23.6 ± 2.4 µM | COc1cc(C2CC(C3=C(C)NC(=S)NC3c3ccc(N(C)C)cc3)=NN2c2ccccc2)ccc1O (stereo not shown) [compound 5a, 4-(4-(dimethylamino)phenyl)-5-(5-(4-hydroxy-3-methoxyphenyl)-1-phenyl-4,5-dihydro-1H-pyrazol-3-yl)-6-methyl-3,4-dihydropyrimidine-2(1H)-thione] | 180 ± 2.7 µM | detectable morphological signs of apoptosis | 48.5% | significantly reduced; also recorded: downregulated | significantly reduced; also recorded: downregulated | significantly upregulated | significantly decreased | significant reduction | significant elevation |
